Assays:
Assay in all cases: radiometric filter-binding kinase assay, Kinase HotSpot
Settings in all cases: compound 0.5 µM; ATP 10 µM
[1] = target: AURKB (human) (UniProt Q96GD4)
[2] = target: CAMK1 (human) (UniProt Q14012)
[3] = target: CLK2 (human) (UniProt P49760)
[4] = target: DAPK2 (human) (UniProt Q9UIK4)
[5] = target: EPHA3 (human) (UniProt P29320)
[6] = target: ERBB2 (human) (UniProt P04626)
[7] = target: FGFR1 (human) (UniProt P11362)
[8] = target: GSK3B (human) (UniProt P49841)
[9] = target: IKBKE (human) (UniProt Q14164)
IKBKE (human), sequence (Q14164 whole entry, looked up): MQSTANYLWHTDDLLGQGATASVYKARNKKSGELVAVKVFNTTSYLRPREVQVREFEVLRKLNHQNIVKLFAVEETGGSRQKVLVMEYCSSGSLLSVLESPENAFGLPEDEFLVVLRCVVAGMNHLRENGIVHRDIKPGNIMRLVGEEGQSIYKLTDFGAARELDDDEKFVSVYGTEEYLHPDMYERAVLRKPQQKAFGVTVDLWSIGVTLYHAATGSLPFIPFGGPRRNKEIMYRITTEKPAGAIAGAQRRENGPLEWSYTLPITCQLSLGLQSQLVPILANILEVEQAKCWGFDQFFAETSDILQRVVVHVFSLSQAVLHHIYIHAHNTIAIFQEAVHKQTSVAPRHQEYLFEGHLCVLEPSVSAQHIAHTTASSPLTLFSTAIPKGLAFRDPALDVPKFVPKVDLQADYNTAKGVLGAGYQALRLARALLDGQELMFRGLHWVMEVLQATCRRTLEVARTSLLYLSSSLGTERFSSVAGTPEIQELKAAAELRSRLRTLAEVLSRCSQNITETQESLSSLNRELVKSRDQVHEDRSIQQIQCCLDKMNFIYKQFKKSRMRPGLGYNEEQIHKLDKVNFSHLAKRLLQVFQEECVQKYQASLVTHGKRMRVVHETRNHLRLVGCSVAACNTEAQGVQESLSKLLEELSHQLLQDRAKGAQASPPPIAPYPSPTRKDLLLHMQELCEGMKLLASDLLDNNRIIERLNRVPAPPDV

[10] = target: IRAK1 (human) (UniProt P51617)
IRAK1 (human), sequence (P51617 whole entry, looked up): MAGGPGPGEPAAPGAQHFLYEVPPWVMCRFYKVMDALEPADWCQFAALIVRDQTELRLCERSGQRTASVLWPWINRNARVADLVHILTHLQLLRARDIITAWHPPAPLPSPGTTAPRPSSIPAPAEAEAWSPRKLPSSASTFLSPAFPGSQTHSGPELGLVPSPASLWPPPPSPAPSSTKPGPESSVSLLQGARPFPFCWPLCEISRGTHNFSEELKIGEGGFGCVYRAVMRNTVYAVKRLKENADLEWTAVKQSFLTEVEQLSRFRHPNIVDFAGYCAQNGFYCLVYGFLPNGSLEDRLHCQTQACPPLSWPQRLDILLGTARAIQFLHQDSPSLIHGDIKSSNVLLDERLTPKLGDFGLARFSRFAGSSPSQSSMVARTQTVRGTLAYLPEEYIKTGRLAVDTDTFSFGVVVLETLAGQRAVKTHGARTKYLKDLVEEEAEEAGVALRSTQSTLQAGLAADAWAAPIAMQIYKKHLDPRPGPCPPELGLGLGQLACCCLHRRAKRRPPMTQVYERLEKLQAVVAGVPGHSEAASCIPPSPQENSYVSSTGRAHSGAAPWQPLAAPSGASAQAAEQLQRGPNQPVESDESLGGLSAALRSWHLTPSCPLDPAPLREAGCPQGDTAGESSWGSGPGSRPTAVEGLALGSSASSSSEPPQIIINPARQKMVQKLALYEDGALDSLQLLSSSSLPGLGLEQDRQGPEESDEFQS

[11] = target: MAPK10 (human) (UniProt P53779)
MAPK10 (human), sequence (P53779 whole entry, looked up): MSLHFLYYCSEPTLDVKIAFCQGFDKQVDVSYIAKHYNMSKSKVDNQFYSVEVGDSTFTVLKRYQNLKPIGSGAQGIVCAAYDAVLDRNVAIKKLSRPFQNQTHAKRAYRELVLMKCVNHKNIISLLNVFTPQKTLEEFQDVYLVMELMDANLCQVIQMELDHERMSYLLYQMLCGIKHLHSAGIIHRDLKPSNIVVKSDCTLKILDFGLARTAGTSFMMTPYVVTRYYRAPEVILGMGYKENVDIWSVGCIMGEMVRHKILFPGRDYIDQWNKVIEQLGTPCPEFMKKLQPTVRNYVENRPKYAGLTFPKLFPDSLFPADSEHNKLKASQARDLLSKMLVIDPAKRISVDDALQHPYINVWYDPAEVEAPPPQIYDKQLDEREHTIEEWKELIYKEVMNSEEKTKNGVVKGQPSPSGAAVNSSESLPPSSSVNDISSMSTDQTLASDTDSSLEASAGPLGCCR

[12] = target: MAPK11 (human) (UniProt Q15759)
[13] = target: MAPKAPK5 (human) (UniProt Q8IW41)
[14] = target: MET (human) (UniProt P08581)
[15] = target: MINK1 (human) (UniProt Q8N4C8)
[16] = target: MKNK2 (human) (UniProt Q9HBH9)
[17] = target: MLTK (human) (UniProt Q9NYL2)
[18] = target: MST4 (human) (UniProt Q9P289)
[19] = target: MYLK (human) (UniProt Q15746)
[20] = target: MYLK2 (human) (UniProt Q9H1R3)
[21] = target: NEK1 (human) (UniProt Q96PY6)
[22] = target: NEK7 (human) (UniProt Q8TDX7)
NEK7 (human), sequence (Q8TDX7 whole entry, looked up): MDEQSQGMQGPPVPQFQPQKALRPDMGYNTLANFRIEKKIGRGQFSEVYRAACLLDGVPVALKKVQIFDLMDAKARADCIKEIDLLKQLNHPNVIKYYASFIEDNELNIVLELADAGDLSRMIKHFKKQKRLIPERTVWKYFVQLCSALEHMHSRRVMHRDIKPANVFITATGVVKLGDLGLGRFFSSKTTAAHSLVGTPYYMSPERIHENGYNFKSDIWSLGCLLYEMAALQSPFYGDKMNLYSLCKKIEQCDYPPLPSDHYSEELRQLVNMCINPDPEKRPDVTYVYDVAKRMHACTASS

[23] = target: PAK4 (human) (UniProt O96013)
[24] = target: PHKG2 (human) (UniProt P15735)
[25] = target: PLK1 (human) (UniProt P53350)
PLK1 (human), sequence (P53350 whole entry, looked up): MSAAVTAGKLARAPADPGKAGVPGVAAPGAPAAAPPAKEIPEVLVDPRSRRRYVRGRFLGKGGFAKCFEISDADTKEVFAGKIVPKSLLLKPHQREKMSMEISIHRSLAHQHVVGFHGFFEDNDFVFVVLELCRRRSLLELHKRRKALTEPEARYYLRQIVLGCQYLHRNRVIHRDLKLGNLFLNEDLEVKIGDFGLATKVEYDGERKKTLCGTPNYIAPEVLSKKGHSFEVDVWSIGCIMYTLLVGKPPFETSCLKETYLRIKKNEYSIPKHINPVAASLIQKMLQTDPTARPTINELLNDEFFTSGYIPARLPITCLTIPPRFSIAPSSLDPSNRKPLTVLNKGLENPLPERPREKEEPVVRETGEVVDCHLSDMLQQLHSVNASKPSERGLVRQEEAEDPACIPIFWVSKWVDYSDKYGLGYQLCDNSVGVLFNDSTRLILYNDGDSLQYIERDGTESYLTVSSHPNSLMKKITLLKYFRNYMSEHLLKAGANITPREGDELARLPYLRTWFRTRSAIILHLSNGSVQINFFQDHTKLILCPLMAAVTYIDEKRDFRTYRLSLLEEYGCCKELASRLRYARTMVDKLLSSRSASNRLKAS

[26] = target: PNCK (human) (UniProt Q6P2M8)
[27] = target: PRKCB1 (human) (UniProt P05771)
[28] = target: PRKCI (human) (UniProt P41743)
PRKCI (human), sequence (P41743 whole entry, looked up): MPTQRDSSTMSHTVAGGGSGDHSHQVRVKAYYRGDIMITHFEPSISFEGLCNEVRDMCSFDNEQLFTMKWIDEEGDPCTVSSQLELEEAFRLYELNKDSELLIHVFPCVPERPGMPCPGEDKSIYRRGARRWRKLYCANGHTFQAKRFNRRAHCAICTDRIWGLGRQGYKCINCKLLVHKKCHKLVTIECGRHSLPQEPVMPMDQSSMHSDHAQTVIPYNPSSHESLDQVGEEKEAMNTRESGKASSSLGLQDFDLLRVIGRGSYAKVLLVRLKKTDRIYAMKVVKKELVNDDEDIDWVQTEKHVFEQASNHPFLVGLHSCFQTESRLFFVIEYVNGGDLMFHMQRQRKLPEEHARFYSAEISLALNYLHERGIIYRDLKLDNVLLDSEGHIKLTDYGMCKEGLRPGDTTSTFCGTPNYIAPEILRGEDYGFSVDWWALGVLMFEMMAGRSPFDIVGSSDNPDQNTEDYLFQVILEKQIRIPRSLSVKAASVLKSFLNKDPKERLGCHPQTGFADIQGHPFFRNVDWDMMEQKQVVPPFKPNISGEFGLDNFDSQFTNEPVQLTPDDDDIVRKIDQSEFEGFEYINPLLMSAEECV

[29] = target: PRKD2 (human) (UniProt Q9BZL6)
[30] = target: RET (human) (UniProt P07949)
[31] = target: RPS6KA3 KD1 KD2 (human) (UniProt P51812)
[32] = target: RPS6KA6 KD1 KD2 (human) (UniProt Q9UK32)
[33] = target: RPS6KB1 (human) (UniProt P23443)
[34] = target: STK25 (human) (UniProt O00506)
STK25 (human), sequence (O00506 whole entry, looked up): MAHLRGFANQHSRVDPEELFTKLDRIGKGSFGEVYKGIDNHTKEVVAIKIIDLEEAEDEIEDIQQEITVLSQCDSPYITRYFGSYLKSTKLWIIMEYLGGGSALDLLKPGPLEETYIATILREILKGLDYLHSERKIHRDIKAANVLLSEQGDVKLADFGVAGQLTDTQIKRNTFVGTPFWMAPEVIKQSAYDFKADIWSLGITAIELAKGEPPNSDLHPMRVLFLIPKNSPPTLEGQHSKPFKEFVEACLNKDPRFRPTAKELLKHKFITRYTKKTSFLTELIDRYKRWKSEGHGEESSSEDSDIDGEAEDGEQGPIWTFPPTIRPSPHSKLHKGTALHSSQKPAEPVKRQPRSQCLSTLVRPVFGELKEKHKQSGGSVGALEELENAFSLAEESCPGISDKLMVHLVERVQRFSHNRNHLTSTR

[35] = target: STK3 (human) (UniProt Q13188)
[36] = target: STK38 (human) (UniProt Q15208)
[37] = target: TYRO3 (human) (UniProt Q06418)
[38] = target: ULK3 (human) (UniProt Q6PHR2)
[39] = target: YES1 (human) (UniProt P07947)
[40] = target: ACVR1B (human) (UniProt P36896)
[41] = target: CHEK1 (human) (UniProt O14757)
[42] = target: EPHB3 (human) (UniProt P54753)

FGFR1 (human), sequence (P11362 whole entry, looked up): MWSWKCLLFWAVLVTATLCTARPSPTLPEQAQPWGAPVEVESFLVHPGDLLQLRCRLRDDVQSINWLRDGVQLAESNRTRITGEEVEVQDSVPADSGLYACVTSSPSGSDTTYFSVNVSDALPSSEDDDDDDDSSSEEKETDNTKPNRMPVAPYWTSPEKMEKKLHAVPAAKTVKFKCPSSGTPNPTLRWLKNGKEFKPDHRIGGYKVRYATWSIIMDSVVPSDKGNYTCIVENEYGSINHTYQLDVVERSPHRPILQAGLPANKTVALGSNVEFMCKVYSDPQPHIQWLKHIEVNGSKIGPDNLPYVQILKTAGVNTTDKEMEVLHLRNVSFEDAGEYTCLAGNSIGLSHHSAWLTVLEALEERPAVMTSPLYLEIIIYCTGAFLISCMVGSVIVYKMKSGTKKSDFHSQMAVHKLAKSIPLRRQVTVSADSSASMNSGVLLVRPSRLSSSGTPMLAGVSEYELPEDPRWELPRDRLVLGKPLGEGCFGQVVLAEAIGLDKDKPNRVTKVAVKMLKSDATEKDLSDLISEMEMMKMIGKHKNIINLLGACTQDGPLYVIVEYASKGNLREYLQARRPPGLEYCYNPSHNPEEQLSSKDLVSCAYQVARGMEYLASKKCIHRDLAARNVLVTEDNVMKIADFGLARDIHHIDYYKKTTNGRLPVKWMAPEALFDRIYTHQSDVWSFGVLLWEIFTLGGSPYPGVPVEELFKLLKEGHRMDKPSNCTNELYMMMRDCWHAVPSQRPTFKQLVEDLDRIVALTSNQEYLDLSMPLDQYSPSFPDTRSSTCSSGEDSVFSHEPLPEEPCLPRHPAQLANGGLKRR
CAMK1 (human), sequence (Q14012 whole entry, looked up): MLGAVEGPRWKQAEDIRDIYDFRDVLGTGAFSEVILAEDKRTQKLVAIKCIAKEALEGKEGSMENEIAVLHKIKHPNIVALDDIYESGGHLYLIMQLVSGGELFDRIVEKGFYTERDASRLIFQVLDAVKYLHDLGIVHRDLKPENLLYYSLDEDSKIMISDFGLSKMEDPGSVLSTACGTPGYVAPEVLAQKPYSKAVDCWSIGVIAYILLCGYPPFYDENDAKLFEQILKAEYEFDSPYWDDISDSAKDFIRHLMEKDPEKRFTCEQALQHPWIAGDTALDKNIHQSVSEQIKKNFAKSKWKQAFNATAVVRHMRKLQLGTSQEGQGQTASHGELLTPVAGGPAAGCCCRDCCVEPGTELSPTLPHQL

| SMILES | residual activity [1] [%] | residual activity [2] [%] | residual activity [3] [%] | residual activity [4] [%] | residual activity [5] [%] | residual activity [6] [%] | residual activity [7] [%] | residual activity [8] [%] | residual activity [9] [%] | residual activity [10] [%] | residual activity [11] [%] | residual activity [12] [%] | residual activity [13] [%] | residual activity [14] [%] | residual activity [15] [%] | residual activity [16] [%] | residual activity [17] [%] | residual activity [18] [%] | residual activity [19] [%] | residual activity [20] [%] | further results |
| --- | --- | --- | --- | --- | --- | --- | --- | --- | --- | --- | --- | --- | --- | --- | --- | --- | --- | --- | --- | --- | --- |
| Oc1cccc(-c2nc(N3CCOCC3)c3oc4ncccc4c3n2)c1 | 99.4 | 101 | 88 | 117 | 93.7 | 105 | 91.7 | 94.8 | 98.8 | 84.2 | 102 | 103 | 85.7 | 97.8 | 96 | 92.6 | 96.2 | 98.6 | 77.1 | 99 | residual activity [21]: 77.8%; residual activity [22]: 97.3%; residual activity [23]: 90.7%; residual activity [24]: 99.1%; residual activity [25]: 97.9%; residual activity [26]: 96.7%; residual activity [27]: 97.8%; residual activity [28]: 94.9%; residual activity [29]: 93.8%; residual activity [30]: 99.8%; residual activity [31]: 101%; residual activity [32]: 98.2%; residual activity [33]: 106%; residual activity [34]: 93.4%; residual activity [35]: 105%; residual activity [36]: 99%; residual activity [37]: 102%; residual activity [38]: 99.7%; residual activity [39]: 94.3% |
| Nc1cccc(-c2cc3c(Oc4cccc(O)c4)ncnc3[nH]2)c1 | 71.9 | 112 | 98.8 | 106 | 39.7 | 76.6 | 39.3 | 48.1 | 88.1 | 91.4 | 89.4 | 108 | 125 | 110 | 34.7 | 67.5 | 13.9 | 83.8 | 81.7 | 29.9 | residual activity [40]: 122%; residual activity [41]: 66.2%; residual activity [42]: 78.8%; residual activity [21]: 92.3%; residual activity [22]: 99.4%; residual activity [23]: 99.8%; residual activity [24]: 109%; residual activity [25]: 104%; residual activity [26]: 98.2%; residual activity [27]: 113%; residual activity [28]: 84.6%; residual activity [29]: 81.7%; residual activity [30]: -0.229%; residual activity [31]: 96.9%; residual activity [32]: 95.4%; residual activity [33]: 95.3%; residual activity [34]: 91.6%; residual activity [35]: 109%; residual activity [37]: 52.1%; residual activity [39]: 6.05% |

Reference: the kinase profiling compilation of Christmann-Franck et al. (2016)
